# According to patent US20160074467A1, “TREATMENT OF AGING EFFECTS BY GONADOTROPIN-RELEASING HORMONE, NEUROGENESIS OR BRAIN IKK BETA/NF-KAPPAB INHIBITION” (ALBERT EINSTEIN COLLEGE OF MEDICINE, INC., priority 2013, published 2016):
# Ends that are not written are not given here.
# Columns and labels:
# [1] = system: BrdU-labelled cells in the MBH and dentate gyrus; assay: BrdU labelling survival assay with i.c.v. GnRH in old mice; type: in vivo; details: old C57BL/6 mice; GnRH 1 ng per day i.c.v.; 7 days of daily BrdU injections, thirty-day tracking; FIG. 6d, e
# Experimental: (§1) Immunostaining, histology and western blot. Mice under anaesthesia were perfused with 4% paraformaldehyde, and brains were removed, post-fixed in 4% paraformaldehyde, and infiltrated in 20-30% sucrose. Brain sections were made at 10-μm thickness via a cryostat, blocked with serum, penetrated with Triton-X 100, treated overnight at 4° C. with primary antibody, followed by reaction with fluorescence-conjugated secondary antibody (Jackson), and imaged under a confocal microscope. For BrdU staining, sections were pre-treated with 1 M HCl for 30 min at 37° C., followed by 5-min treatment with 0.1 M sodium borate, pH 8.5. Primary antibodies included rabbit anti-Iba-1 (Wako), rabbit anti-GFAP (Millipore), mouse anti-TNF-α (Abcam), mouse anti-NeuN (Millipore), and goat anti-Cre antibody (Santa Cruz). For Nissl staining, freshly isolated mice brains were fixed in 4% paraformaldehyde in PBS for overnight at 4° C. The fixed whole brains were then subjected to cryosectioning coronally, and frozen sections were stained to detect Nissl body by using the NovaUltra Nissl stain kit (IHCWORLD) according to the manufacturer's instruction.
# (§2) Serial brain sections across the MBH were made at 20 μm thickness, and every five sections were represented by one section with staining and cell counting. […]
# [2] = system: aging physiology and histology; assay: Daily subcutaneous GnRH therapy: aging physiology and histology (muscle endurance, skeletal muscle fibers, dermal thickness); type: in vivo, C57BL/6 mice
# Experimental: (§3) For animal GnRH therapy, mice were subcutaneously injected with GnRH (Sigma) at the dose of 2 ng per mouse on a daily basis for a period of 5-8 weeks. The Institutional Animal Care and Use Committee at the Albert Einstein College of Medicine approved all the procedures. Body weight and food intake were measured regularly using a laboratory scale. The grip test was performed to measure muscle endurance using the method as similarly described in the literature^36,37, using a homemade square grid with a small mesh size to allow mice to hang for longer time. In brief, a mouse was lifted by the tail and placed on a homemade square grid (1-cm mesh size). The grid was then inverted 30.5 cm over a soft pad, and the mouse was allowed to hang by paws for a maximum of 5 min. The time that the mouse was able to hang was recorded during a 5-min test period.
# Tissue histology. Skeletal muscles (quadriceps) and dorsal skin were dissected from mice, fixed in 10% neutralized formalin at 4° C. overnight, and embedded into paraffin. Paraffin sections were prepared at 5-μm thickness and subjected to haematoxylin and eosin staining. Images were collected using an Axioskop II light microscope (Zeiss) and analyzed using Image J.
# [3] = system: neurogenesis in the MBH and dentate gyrus; assay: BrdU labelling neurogenesis assay with i.c.v. GnRH in old mice; type: in vivo; details: old C57BL/6 mice; GnRH 1 ng per day i.c.v. (third ventricle); single BrdU injection, 7 days; vs vehicle; FIG. 6a-c
# Experimental: as §1, §2
# [4] = system: aging-related cognitive decline; assay: Daily subcutaneous GnRH therapy: cognition; type: in vivo, C57BL/6 mice; details: old MBH-ctrl and MBH-IKK-β mice; peripheral (s.c.) GnRH daily, 5 weeks; FIG. 6i
# Experimental: as §3
# Cognitive behavioral tests. […]
# Hidden-platform training. […] Mice were expected to find the location of the invisible platform, and measured for latency to reach the platform, distance travelled to reach the platform, path efficiency, time spent in and distance travelled in each quadrant as well as total distance and mean swim speed.
# Probe trial. […] Mice were measured for the amount of time spent in all quadrants, distance and number of times that mice crossed the location of the former platform, and total distance and mean swim speed. […]
substance,measurement,setting,value
"gonadotropin-releasing hormone (QHWSYGLRPG; ends and bridges not checked; UniProt P01148 24-33, looked up) [GnRH, gonadotropin-releasing hormone (GnRH), obtained from Sigma]",survival of BrdU-labelled cells in MBH and dentate gyrus,[1],significantly survived
same,anti-aging phenotype,"[2]; MBH-IκB-α mice treated with GnRH, data not shown",did not further enhance the anti-aging phenotype
same,"pro-aging phenotype (muscle endurance, muscle fibers, dermal thickness)","[2]; old MBH-IKK-β mice, GnRH 2 ng per mouse s.c. daily, 5 weeks, FIG. 6f-h",abrogated the pro-aging phenotype
same,"magnitude of aging histology (muscle endurance, muscle fibers, dermal thickness)","[2]; old MBH-ctrl mice, GnRH 2 ng per mouse s.c. daily, 5 weeks, FIG. 6f-h",reduced the magnitude of aging histology
same,aging-diminished neurogenesis (BrdU-labelled cells in hypothalamus and hippocampus),[3],substantially reversed
same,aging-related cognitive decline,[4],amelioration of aging-related cognitive decline
